Assay results reported in patent publication US20110136728A1, “METHODS OF INCREASING BONE FORMATION USING LEPTIN-RELATED PEPTIDES” (priority 2009, published 2011).
No end group written: not given here.

Tested on: ob/ob mouse model
Assay: Earlier study of OB3 and D-amino acid-substituted OB3 analogs: body weight gain, food and water intake, blood glucose
Assay type: in vivo
Settings: mouse, in vivo
Source text: Single-point D-amino acid substitution was used to study the structure-function relationships of each amino acid residue in OB3, and to increase its efficacy. The restricted domain represented by OB3 contains a functional epitope, which has the ability to mimic at least some of the effects of leptin on energy balance and glucose homeostasis.
The design of peptide ligands involved the introduction of conformational constraints into native sequences by techniques that include, but are not limited to, D-amino acid substitution or cyclization. (Hruby and Bonner, Methods Mol Biol. 35:201-40 (1994)). Systematic replacement of L-amino acids by their D-amino acid isoforms was used to determine the stereostructural requirements of specific residues in a peptide for peptide-receptor interaction, and to assess the contribution of certain secondary structural motifs, e.g., α-helix or β-turn, to the bioactivity of the peptide. (Hruby, Biopolymers 33(7):1073-82 (1993) and Hruby, Life Sci. 52(10):845-55 (1993)). This approach increased peptide resistance to enzymatic hydrolysis, and to enhance the properties of biologically active peptides, including receptor binding, functional potency, and duration of action. (See Fauchere et al., Adv. Drug Res., 23:127-139 (1992); Doherty et al., J. Med. Chem., 36:2585-2594 (1993); Kirby et al., J. Med. Chem., 36:3802-3808 (1993); Morita et al., FEBS Lett., 353:84-88 (1994)).
(See Rozhayskaya-Arena M, et al., Endocrinology 141:2501-2517 (2000); Grasso P et al., Regulatory Pep. 101:123-129 (2001)).

SCSLPQT [OB3, amino acid residues 116-122 of mouse leptin]
maximal reduction of blood glucose levels: approximately 100 mg/dl
